This passage reports TGI results from PubChem BioAssay (NCI).

Test systems include HCC-2998 colon; HOP-92 NSCLC; K-562 leukemia; MALME-3M melanoma; OVCAR-8 ovarian; SF-268 CNS; SK-MEL-2 melanoma.
What all share (assay): NCI-60 cell line screen, 48 h

Each structure is given as a SMILES string.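 1) Cells in 96-well plates. 2) Compound, 48 h, 5 concentrations. 3) Linear interpolation between surrounding doses. 4) Unreached endpoint = highest concentration. Definition used: TGI = concentration required for complete inhibition of growth.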 Where a SMILES comes first, the peptide text is derived from it. The star is where a group is joined. Boc = CC(C)(C)OC(=O)*; OBn = c1ccc(CO*)cc1 Some results are limits rather than exact numbers.

Take `CN(CCCN(C)CCc1ccc(Cl)c(Cl)c1)CCCN1CCCC1`: the TGI in the test on HCC-2998 colon stood at 0.82 µM; in the test on HOP-92 NSCLC it was 11.5 µM; with K-562 leukemia, 1.3 µM; with MALME-3M melanoma it was 3.83 µM; with OVCAR-8 ovarian, 10.9 µM; in the test with SF-268 CNS it was 7.02 µM. Moreover, the TGI in the test on SK-MEL-2 melanoma worked out at 3.48 µM.
As for `CC(NC(=O)C(Cc1ccccc1)NC(=O)C(Cc1ccccc1)NC(=O)OC(C)(C)C)C(=O)OCc1ccccc1` (stereo not drawn) (Boc-Phe-Phe-Ala-OBn; configuration not given here), the TGI with HCC-2998 colon was above 100 µM; in the test on HOP-92 NSCLC, 81.2 µM; in the test with K-562 leukemia, above 100 µM; in the test with MALME-3M melanoma, above 100 µM; with OVCAR-8 ovarian, above 100 µM; in the test on SF-268 CNS, above 100 µM. The TGI with SK-MEL-2 melanoma was above 100 µM.
For the molecule `O=c1[nH]c(-c2ccccc2)nc2c1sc1nc3ccccc3n12`, the TGI in the test on HCC-2998 colon, with HOP-92 NSCLC, in the test on K-562 leukemia, with MALME-3M melanoma, in the test with OVCAR-8 ovarian and in the test with SF-268 CNS was above 100 µM each time. In the test with SK-MEL-2 melanoma, this molecule registered a TGI above 100 µM.
For `O=C(/C=C/c1ccccc1)CSc1nc2ccc(I)cc2c(=O)n1Cc1ccccc1`, the TGI in the test with HCC-2998 colon is 66.9 µM; in the test with HOP-92 NSCLC it was 55.2 µM; in the test on K-562 leukemia it was above 100 µM; in the test with MALME-3M melanoma, 51.3 µM; with OVCAR-8 ovarian it was above 100 µM; in the test on SF-268 CNS, 51.9 µM. The TGI with SK-MEL-2 melanoma was 99 µM.
For the molecule `CC(C)CCc1n[nH]c(=O)n1/N=C\c1ccccc1`, the TGI with HCC-2998 colon, in the test with HOP-92 NSCLC, in the test with K-562 leukemia, with MALME-3M melanoma, in the test with OVCAR-8 ovarian and with SF-268 CNS was above 100 µM throughout. For the same molecule, the TGI with SK-MEL-2 melanoma was above 100 µM.
Consider `COC(=O)CC(=O)Nc1sccc1S(=O)(=O)c1ccccc1`, for which the TGI was 41.6 µM in the test on HCC-2998 colon; above 100 µM in the test on HOP-92 NSCLC; above 100 µM with K-562 leukemia; above 100 µM with MALME-3M melanoma; above 100 µM with OVCAR-8 ovarian; above 100 µM in the test with SF-268 CNS. In addition, the TGI in the test on SK-MEL-2 melanoma was above 100 µM.
For `Cn1cnc(N2CCCC2)c(C#N)c1=O`, the TGI with HCC-2998 colon, with HOP-92 NSCLC, with K-562 leukemia, with MALME-3M melanoma, with OVCAR-8 ovarian and in the test with SF-268 CNS was above 100 µM each time. In the test on SK-MEL-2 melanoma, this molecule gave a TGI above 100 µM.
As for `COC(=O)C1=C(C)NC(C)=C(C(=O)OC)C1c1cccc(NO)c1`, the TGI in the test with HCC-2998 colon was above 100 µM; with HOP-92 NSCLC, 23.8 µM; in the test with K-562 leukemia, above 100 µM; in the test with MALME-3M melanoma, 29.9 µM; in the test with OVCAR-8 ovarian it was 30.2 µM; with SF-268 CNS it was 30.6 µM. Further, the TGI in the test with SK-MEL-2 melanoma was determined as 30.8 µM.
As for `O=c1oc2c(ccc3ccccc32)cc1C1=CSC2=NCCN12`, the TGI in the test with HCC-2998 colon was 38.7 µM; with HOP-92 NSCLC, 84.3 µM; in the test on K-562 leukemia it was above 100 µM; in the test with MALME-3M melanoma it was above 100 µM; in the test on OVCAR-8 ovarian, above 100 µM; with SF-268 CNS, above 100 µM. Moreover, the TGI in the test with SK-MEL-2 melanoma is above 100 µM.
With `COc1ccc(C2(O)c3ccccc3C(=O)N(C)C2(O)c2ccc(OC)cc2)cc1` (configuration not stated), the TGI in the test on HCC-2998 colon, in the test with HOP-92 NSCLC, in the test on K-562 leukemia, in the test on MALME-3M melanoma, with OVCAR-8 ovarian and with SF-268 CNS was above 100 µM throughout. In the test with SK-MEL-2 melanoma, this molecule showed a TGI above 100 µM.
`C/C(=N\NC(=S)Nc1ccc(C)cc1)c1nc2ncccc2[nH]1`: the TGI was 20.2 µM in the test on HCC-2998 colon; 24.1 µM in the test with HOP-92 NSCLC; 24.2 µM with K-562 leukemia; 37.5 µM with MALME-3M melanoma; 12.3 µM with OVCAR-8 ovarian; 35.7 µM in the test with SF-268 CNS. The same molecule gave a TGI with SK-MEL-2 melanoma of 25.4 µM.
As to `Cc1ccc(-c2c(C#N)c(N)nc3c2CCS(=O)(=O)c2ccccc2-3)cc1`, the TGI with HCC-2998 colon, in the test on HOP-92 NSCLC, with K-562 leukemia, in the test on MALME-3M melanoma, with OVCAR-8 ovarian and in the test on SF-268 CNS was above 100 µM in each case. The same molecule returned a TGI in the test with SK-MEL-2 melanoma above 100 µM.
With `CCOc1cc2c(cc1O)/C(=N/NS(=O)(=O)c1ccc(C)cc1)C[C@@H]1[C@@H]2CC[C@]2(C)[C@@H](O)CC[C@@H]12`, the TGI in the test on HCC-2998 colon is 15.1 µM; in the test on HOP-92 NSCLC it was above 100 µM; in the test on K-562 leukemia it was above 100 µM; with MALME-3M melanoma, above 100 µM; in the test on OVCAR-8 ovarian it was above 100 µM; with SF-268 CNS, above 100 µM. In addition, the TGI in the test with SK-MEL-2 melanoma was above 100 µM.
As to `Cc1ccc(S(=O)(=O)NNC2(NS(=O)(=O)c3ccc(Cl)cc3)C(Cl)=C(Cl)C(=O)c3ccccc32)cc1` (configuration not stated), the TGI with HCC-2998 colon was found to be 33.2 µM; with HOP-92 NSCLC it was 41.6 µM; in the test with K-562 leukemia it was 36.1 µM; in the test with MALME-3M melanoma, 33.2 µM; in the test with OVCAR-8 ovarian, 87.8 µM; with SF-268 CNS, 29.6 µM. This molecule registered a TGI with SK-MEL-2 melanoma of 50.6 µM.
Take `COc1cc(Oc2nc3c(N)cc(C(F)(F)F)cc3nc2-c2ccccc2)cc(OC)c1OC`: the TGI with HCC-2998 colon is above 55.1 µM; with HOP-92 NSCLC, above 65.4 µM; with K-562 leukemia, 6.6 µM; in the test with MALME-3M melanoma, 11.5 µM; in the test with OVCAR-8 ovarian it was above 46.3 µM; in the test on SF-268 CNS, above 100 µM. In the test on SK-MEL-2 melanoma, this molecule returned a TGI of 21 µM.
Turning to `Cc1ccc(S(=O)(=O)n2c3c(c4ccccc42)CCN2CCC(Br)C[C@@H]32)cc1` (some centres not stated), the TGI with HCC-2998 colon was 28.4 µM; with HOP-92 NSCLC, 32.4 µM; in the test on K-562 leukemia, 18.6 µM; in the test on MALME-3M melanoma, 26.1 µM; with OVCAR-8 ovarian, 25.1 µM; with SF-268 CNS, 30.8 µM. For the same molecule, the TGI in the test with SK-MEL-2 melanoma stood at 31.7 µM.
